The values below come from patent US10975077B2 (Novira Therapeutics, Inc., priority 2016, dated 2021).

Usually EC50 stands for the concentration giving half of the maximal effect.

The test system of one test is HBV (encapsidated HBV DNA, HepG2.2.15 cells). Put plainly: HBV replication inhibition assay, BDNA assay in HepG2.2.15 cells. The test is classed as cell-based. To be noted: Activity in BDNA-assay. As for the experimental part: HBV replication inhibition by the disclosed compounds were determined in cells infected or transfected with HBV, or cells with stably integrated HBV, such as HepG2.2.15 cells (Sells et al. 1987). In this example, HepG2.2.15 cells were maintained in cell culture medium containing 10% fetal bovine serum (FBS), Geneticin, L-glutamine, penicillin and streptomycin. HepG2.2.15 cells were seeded in 96-well plates at a density of 40,000 cells/well and were treated with serially diluted compounds at a final DMSO concentration of 0.5% either alone or in combination by adding drugs in a checker box format. Cells were incubated with compounds for three days, after which medium was removed and fresh medium containing compounds was added to cells and incubated for another three days. At day 6, supernatant was removed and treated with DNase at 37° C. for 60 minutes, followed by enzyme inactivation at 75° C. for 15 minutes. Encapsidated HBV DNA was released from the virions and covalently linked HBV polymerase by incubating in lysis buffer (Affymetrix QS0010) containing 2.5 μg proteinase K at 50° C. for 40 minutes. HBV DNA was denatured by addition of 0.2 M NaOH and detected using a branched DNA (BDNA) QuantiGene assay kit according to manufacturer recommendation (Affymetrix). HBV DNA levels were also quantified using qPCR, based on amplification of encapsidated HBV DNA extraction with QuickExtraction Solution (Epicentre Biotechnologies) and amplification of HBV DNA using HBV specific PCR probes that can hybridize to HBV DNA and a fluorescently labeled probe for quantitation. In addition, cell viability of HepG2.2.15 cells incubated with test compounds alone or in combination was determined by using CellTitre-Glo reagent according to the manufacturer protocol (Promega). The mean background signal from wells containing only culture medium was subtracted from all other samples, and percent inhibition at each compound concentration was calculated by normalizing to signals from HepG2.2.15 cells treated with 0.5% DMSO using equation E1. % inhibition=(DMSOave−Xi)/DMSOave×100% E1: where DMSOave is the mean signal calculated from the wells that were treated with DMSO control (0% inhibition control) and Xi is the signal measured from the individual wells. EC50 values, effective concentrations that achieved 50% inhibitory effect, were determined by non-linear fitting using Graphpad Prism software (San Diego, Calif.) and equation E2: Y=Y min+(Y max −Y min)/(1+10(Log EC50−X)×HillSlope) E2: […]
where Y represents percent inhibition values and X represents the logarithm of compound concentrations.
Selected disclosed compounds were assayed in the HBV replication assay (BDNA assay), as described above and a representative group of these active compounds is shown in Table 6.
With `CCC(O)C1CN(C)C(=O)c2c3c(nn2C1)CCN(C(=O)Nc1ccc(F)c(C#N)c1F)C3` (single isomer, unassigned) [Compound 098_E1, (R*)—N-(3-cyano-2,4-difluorophenyl)-8-((S*)-1-hydroxypropyl)-10-methyl-11-oxo-1,3,4,7,8,9,10,11-octahydro-2H-pyrido[4′,3′:3,4]pyrazolo[1,5-a][1,4]diazepine-2-carboxamide], the EC50 is 1 to 100 nM. Consider `CCC(O)C1CN(C)C(=O)c2c3c(nn2C1)CCN(C(=O)Nc1ccc(F)c(C#N)c1F)C3` (single isomer, unassigned) [Compound 098_E2, (S*)—N-(3-cyano-2,4-difluorophenyl)-8-((R*)-1-hydroxypropyl)-10-methyl-11-oxo-1,3,4,7,8,9,10,11-octahydro-2H-pyrido[4′,3′:3,4]pyrazolo[1,5-a][1,4]diazepine-2-carboxamide], for which the EC50 lay in the range of 500 to 1000 nM. On to `CCC(O)C1CN(C)C(=O)c2c3c(nn2C1)CCN(C(=O)Nc1ccc(F)c(C#N)c1F)C3` (single isomer, unassigned) [Compound 098_E3, (S*)—N-(3-cyano-2,4-difluorophenyl)-8-((S*)-1-hydroxypropyl)-10-methyl-11-oxo-1,3,4,7,8,9,10,11-octahydro-2H-pyrido[4′,3′:3,4]pyrazolo[1,5-a][1,4]diazepine-2-carboxamide], for which the EC50 was in the range of 100 to 500 nM. Take `CCC(O)C1CN(C)C(=O)c2c3c(nn2C1)CCN(C(=O)Nc1ccc(F)c(C#N)c1F)C3` (single isomer, unassigned) [Compound 098_E4, (R*)—N-(3-cyano-2,4-difluorophenyl)-8-((R*)-1-hydroxypropyl)-10-methyl-11-oxo-1,3,4,7,8,9,10,11-octahydro-2H-pyrido[4′,3′:3,4]pyrazolo[1,5-a][1,4]diazepine-2-carboxamide]: the EC50 fell in the range of 500 to 1000 nM.

Turning to `CCC(O)C1CN(C)C(=O)c2c3c(nn2C1)CCN(C(=O)Nc1ccc(F)c(C(F)(F)F)c1)C3` (single isomer, unassigned) [Compound 099_E1, (R*)—N-(4-fluoro-3-(trifluoromethyl)phenyl)-8-((S*)-1-hydroxypropyl)-10-methyl-11-oxo-1,3,4,7,8,9,10,11-octahydro-2H-pyrido[4′,3′:3,4]pyrazolo[1,5-a][1,4]diazepine-2-carboxamide], the EC50 is 1 to 100 nM.

As to `CCC(O)C1CN(C)C(=O)c2c3c(nn2C1)CCN(C(=O)Nc1ccc(F)c(C(F)(F)F)c1)C3` (single isomer, unassigned) [Compound 099_E2, (S*)—N-(4-fluoro-3-(trifluoromethyl)phenyl)-8-((R*)-1-hydroxypropyl)-10-methyl-11-oxo-1,3,4,7,8,9,10,11-octahydro-2H-pyrido[4′,3′:3,4]pyrazolo[1,5-a][1,4]diazepine-2-carboxamide], the EC50 fell in the range of 100 to 500 nM.

As for `CCC(O)C1CN(C)C(=O)c2c3c(nn2C1)CCN(C(=O)Nc1ccc(F)c(C(F)(F)F)c1)C3` (single isomer, unassigned) [Compound 099_E3, (S*)—N-(4-fluoro-3-(trifluoromethyl)phenyl)-8-((S*)-1-hydroxypropyl)-10-methyl-11-oxo-1,3,4,7,8,9,10,11-octahydro-2H-pyrido[4′,3′:3,4]pyrazolo[1,5-a][1,4]diazepine-2-carboxamide], the 50% effective concentration (EC50) lay within 1 to 100 nM. On the same count and under the same terms, the same measure for `CCC(O)C1CN(C)C(=O)c2c3c(nn2C1)CCN(C(=O)Nc1ccc(F)c(C(F)(F)F)c1)C3` (single isomer, unassigned) [Compound 099_E4, (R*)—N-(4-fluoro-3-(trifluoromethyl)phenyl)-8-((R*)-1-hydroxypropyl)-10-methyl-11-oxo-1,3,4,7,8,9,10,11-octahydro-2H-pyrido[4′,3′:3,4]pyrazolo[1,5-a][1,4]diazepine-2-carboxamide]: 100 to 500 nM; for `CN1CC(CNCC(F)F)Cn2nc3c(c2C1=O)CN(C(=O)Nc1ccc(F)c(C(F)(F)F)c1)CC3` (single isomer, unassigned) [Compound 119_E1, (R*)-8-(((2,2-difluoroethyl)amino)methyl)-N-(4-fluoro-3-(trifluoromethyl)phenyl)-10-methyl-11-oxo-1,3,4,7,8,9,10,11-octahydro-2H-pyrido[4′,3′:3,4]pyrazolo[1,5-a][1,4]diazepine-2-carboxamide]: 100 to 500 nM; for `CN1CC(CNCC(F)F)Cn2nc3c(c2C1=O)CN(C(=O)Nc1ccc(F)c(C(F)(F)F)c1)CC3` (single isomer, unassigned) [Compound 119_E2, (S*)-8-(((2,2-difluoroethyl)amino)methyl)-N-(4-fluoro-3-(trifluoromethyl)phenyl)-10-methyl-11-oxo-1,3,4,7,8,9,10,11-octahydro-2H-pyrido[4′,3′:3,4]pyrazolo[1,5-a][1,4]diazepine-2-carboxamide]: 1 to 100 nM.

Turning to `C=CC(O)C1CN(C)C(=O)c2c3c(nn2C1)CC(C)N(C(=O)Nc1ccc(F)c(C#N)c1)C3` (single isomer, unassigned) [Compound 123_D1, (3R,8S*)—N-(3-cyano-4-fluorophenyl)-8-((R*)-1-hydroxyallyl)-3,10-dimethyl-11-oxo-1,3,4,7,8,9,10,11-octahydro-2H-pyrido[4′,3′:3,4]pyrazolo[1,5-a][1,4]diazepine-2-carboxamide], the EC50 is 1 to 100 nM.

Staying with this test, now noted: Hepatitis B virus, HepG2.2.15, Activity in BDNA-assay.
`CCC(O)C1CN(C)C(=O)c2c3c(nn2C1)CCN(C(=O)Nc1ccc(F)c(Cl)c1F)C3` (single isomer, unassigned) [Compound 100_E1, (R*)—N-(3-chloro-2,4-difluorophenyl)-8-((S*)-1-hydroxypropyl)-10-methyl-11-oxo-1,3,4,7,8,9,10,11-octahydro-2H-pyrido[4′,3′:3,4]pyrazolo[1,5-a][1,4]diazepine-2-carboxamide]: the EC50 lay in the range of 1 to 100 nM.

As to `CCC(O)C1CN(C)C(=O)c2c3c(nn2C1)CCN(C(=O)Nc1ccc(F)c(Br)c1F)C3` (single isomer, unassigned) [Compound 101_E1, (R*)—N-(3-bromo-2,4-difluorophenyl)-8-((S*)-1-hydroxypropyl)-10-methyl-11-oxo-1,3,4,7,8,9,10,11-octahydro-2H-pyrido[4′,3′:3,4]pyrazolo[1,5-a][1,4]diazepine-2-carboxamide], the EC50 was 1 to 100 nM. Same read-out and setting: then `CCC(O)C1CN(C)C(=O)c2c3c(nn2C1)CCN(C(=O)Nc1ccc(F)c(C(F)(F)F)c1F)C3` (single isomer, unassigned) [Compound 103_E1, (R*)—N-(2,4-difluoro-3-(trifluoromethyl)phenyl)-8-((S*)-1-hydroxypropyl)-10-methyl-11-oxo-1,3,4,7,8,9,10,11-octahydro-2H-pyrido[4′,3′:3,4]pyrazolo[1,5-a][1,4] diazepine-2-carboxamide], with 1 to 100 nM. With `CCC(O)C1CN(C)C(=O)c2c3c(nn2C1)CCN(C(=O)Nc1cc(F)c(F)c(F)c1)C3` (single isomer, unassigned) [Compound 104_E1, (R*)-8-((S*)-1-hydroxypropyl)-10-methyl-11-oxo-N-(3,4,5-trifluorophenyl)-1,3,4,7,8,9,10,11-octahydro-2H-pyrido[4′,3′:3,4]pyrazolo[1,5-a][1,4] diazepine-2-carboxamide], the EC50 lay in the range of 1 to 100 nM. Take `CCC(O)C1CN(C)C(=O)c2c3c(nn2C1)CCN(C(=O)Nc1cc(F)c(F)c(F)c1F)C3` (single isomer, unassigned) [Compound 105_E1, (R*)-8-((S*)-1-hydroxypropyl)-10-methyl-11-oxo-N-(2,3,4,5-tetrafluorophenyl)-1,3,4,7,8,9,10,11-octahydro-2H-pyrido[4′,3′:3,4]pyrazolo[1,5-a][1,4]diazepine-2-carboxamide]: the EC50 is 1 to 100 nM. For the compound `CN1CC(CNCC(F)F)Cn2nc3c(c2C1=O)CN(C(=O)Nc1ccc(F)c(C#N)c1)CC3` (single isomer, unassigned) [Compound 118_E1, (R*)—N-(3-cyano-4-fluorophenyl)-8-(((2,2-difluoroethyl)amino)methyl)-10-methyl-11-oxo-1,3,4,7,8,9,10,11-octahydro-2H-pyrido[4′,3′:3,4]pyrazolo[1,5-a][1,4]diazepine-2-carboxamide], the EC50 lay in the range of 100 to 500 nM. On the same count and under the same terms, then `CN1CC(CNCC(F)F)Cn2nc3c(c2C1=O)CN(C(=O)Nc1ccc(F)c(C#N)c1)CC3` (single isomer, unassigned) [Compound 118_E2, (S*)—N-(3-cyano-4-fluorophenyl)-8-(((2,2-difluoroethyl)amino)methyl)-10-methyl-11-oxo-1,3,4,7,8,9,10,11-octahydro-2H-pyrido[4′,3′:3,4]pyrazolo[1,5-a][1,4]diazepine-2-carboxamide], with 1 to 100 nM.
